Measured values reported in US20220251096A1, “7,8-DIHYDRO-4H-PYRAZOLO[4,3-c]AZEPINE-6-ONE COMPOUNDS” (Eli Lilly and Company, priority 2019, published 2022).

How the values were obtained:
Assay type in all cases: cell-based
SKNO-1 (AML1-ETO) = assay: Cell growth inhibition assay, SKNO-1 (AML1-ETO); settings: 168 h, 7 days
Protocol: Tumor cell lines are plated onto 96-well, black wall poly-D-lysine plates (Corning #354640), and incubated at 37° C., 5% CO2 for 18-24 hours. Compound was added at 1:3 dilutions in DMSO and cells were incubated at 37° C., 5% CO2 for 7 days. For adherent cell lines, cells were fixed and stained with propidium iodide and scanned on Acumen (channel 3 setting). For suspension cell lines, cell growth was monitored using Cell Titer-Glo reagent.

CREBBP = CREBBP (Homo sapiens, UniProt Q92793); assay: NanoBRET assay, CREBBP bromodomain; parameters: NanoLuc-CREBBP-BD (Promega, 0.0002 μg); host or cells: HEK293; settings: NanoBRET in HEK293 cells, read after 4 hours incubation; mean ± Standard Deviation
Protocol: (§1) HEK293 cells are seeded at 10×10^6 cells/16 mL in DMEM+10% FBS in a T-75 flask and left to attach for 4-6 hours. Transfection reagents are diluted in Opti-MEM media (no phenol red, no FBS) and 8% Fugene HD containing expression plasmids at a final concentration of the following: 1: Histone H3.3 HaloTag DNA (Promega, 0.02 μg)+NanoLuc-CREBBP-BD (Promega, 0.0002 μg); 2: Histone H3.3 HaloTag DNA (Promega, 0.02 μg)+NanoLuc-EP300-BD (Promega, 0.0002 μg); 3: Histone H4 HaloTag DNA (0.02 μg)+NanLuc-BRD4 Full Length (Promega, 0.0002 μg). The DNA/Fugene mixtures are left at RT for 10 minutes. Transfection mix (800 μL) is added per flask and immediately swirled to cover the cells. The plates are returned to the incubator for overnight transfection. The next day, HaloTag NanoBRET 618 ligand (20 μL/vial of 0.1 mM) is thawed at RT. […]
(§2) Compound is serially diluted and added to 96-well plates (2 10 mM, 3-fold dilutions, 100% DMSO). […] CREBBP/EP300 plates are read after 4 hours incubation and the BRD4 plates are read after overnight incubation. To develop plates for reading, allow all reagents to reach RT before use. […] The plate is shaken for 1 minute to mix and within 10 minutes, read on Envision plate reader with the following settings: Mirror: Luminescence; Emission filter: E600LP; 2nd emission filter: D460/50; Measurement height (mm): 6.5; Measurement time (s): 0.2 second.

EP300 = biological target: T1, EP300 (Homo sapiens, UniProt Q09472); assay: NanoBRET assay, EP300 bromodomain; parameters: NanoLuc-EP300-BD (Promega, 0.0002 μg); host or cells: HEK293; settings: NanoBRET in HEK293 cells, read after 4 hours incubation; mean ± Standard Deviation
T1 sequence (Q09472 1049-1156 limits assumed): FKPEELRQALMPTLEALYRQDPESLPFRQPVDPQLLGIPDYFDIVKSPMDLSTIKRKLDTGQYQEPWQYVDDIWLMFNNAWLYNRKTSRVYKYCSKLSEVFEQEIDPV
Protocol: as §1, §2

CREBBP, sequence (Q92793 1085-1192 limits assumed): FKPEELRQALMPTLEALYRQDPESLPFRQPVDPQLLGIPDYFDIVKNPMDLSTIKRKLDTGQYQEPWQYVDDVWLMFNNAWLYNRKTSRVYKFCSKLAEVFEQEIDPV

IC50 (SKNO-1 (AML1-ETO)): 0.018 µM
IC50 (CREBBP): 0.0186 ± 0.00409 µM
IC50 (EP300): 0.0261 ± 0.0165 µM
Structure (SMILES): CCNC(=O)c1ccc(-c2cc3cccc(-c4nn(C)c5c4CN(C)C(=O)CC5)c3cn2)cn1 [Example 2, 5-[8-(1,5-Dimethyl-6-oxo-7,8-dihydro-4H-pyrazolo[4,3-c]azepin-3-yl)-3-isoquinolyl]-N-ethyl-pyridine-2-carboxamide]
